In the METLIN SMRT retention time set (Domingo-Almenara et al. 2019):

Experiment: gradient 5% acetonitrile 3 min, to 50% in 2 min, to 85% in 15 min, held 3 min, 100 µL/min
Details: column: Zorbax Extend-C18 2.1 x 50 mm; eluents: water / acetonitrile, 0.1% formic acid
Summary of the method: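 In both positive and negative ionization mode, a quadrupole time-of-flight mass spectrometer coupled to HPLC analyzed pure standards run in mixtures of ~100 molecules. The Zorbax Extend-C18 column (2.1 × 50 mm, 1.8 μm) was operated at 100 μL/min with water and acetonitrile, each containing 0.1% formic acid. The dead volume was 40 μL and the dwell volume 900 μL. Retention time came from adduct peaks that were computationally picked and individually inspected by hand.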

Structure (SMILES)	RP-LC retention time
CCCCn1c(CN2CCOCC2)nc2cc(NC(=O)C(C)C)ccc21	648 s
Cc1c(F)cccc1NC(=O)N1CCC(n2cnnc2C2CC2)C1 (centres undefined)	655 s
Cc1ccc(-c2[nH]ncc2CNS(=O)(=O)c2cccc3nsnc23)cc1C	802 s
C=CCN1CCN(c2ccc3nnc(CCc4nc(-c5ccc(OC)cc5)no4)n3n2)CC1	603 s
O=C(NCCCc1ccccc1)C1CCN(C(=O)c2ncn3c2COC(c2ccc(F)cc2)C3)CC1 (centres undefined)	818 s
CSCc1csc(NC(=O)NCc2ccc(F)cc2)n1	754 s
Cc1cc(F)ccc1NC(=O)c1cnc2c(c1)c(=O)n(C)c(=O)n2-c1ccccc1	854 s
CNC(=O)c1cnn(-c2nc(N)c3ncn([C@@H]4O[C@H](CO)C(O)C4O)c3n2)c1 (some centres undefined)	586 s
CCn1cc(CCNC(=O)Nc2ccccc2OC)c2cccnc21	718 s
CC(C)CCNC(=O)C1(C)CN(S(=O)(=O)c2ccccc2)CC(=O)N1c1ccc(F)cc1F (centres undefined)	972 s
CCC(C(=O)NCCc1c(C)noc1C)n1c2ccccc2c2cnn(C)c(=O)c21 (centres undefined)	739 s
CCc1ccc(-c2noc(CN3C(=O)COc4ccc(C)cc43)n2)cc1	1160 s
O=C(Cc1ccc(Cl)cc1)N1CCN(c2cc(-c3cccnc3)[nH]n2)CC1	636 s
Cc1cccc(NC(=O)Cn2nc(C(=O)N3CCOCC3)c3ccccc32)c1C	819 s
CN(C)S(=O)(=O)c1ccc(-c2nnc(C(=O)NCCCN3CCCC3=O)o2)cc1	655 s
CCCNS(=O)(=O)c1cc2c(cc1C)CCN2C(C)=O	641 s
CCn1cnc(S(=O)(=O)N2CCC(C(=O)NCc3ccc4c(c3)OCO4)CC2)c1	684 s
Cc1ccc(NC(=O)NCC2CCOCC2)cc1C	726 s
O=C(c1ccccc1N1C(=O)c2cccc3cccc(c23)C1=O)N1CCOCC1	692 s
CN1CCN(C2CCN(C(=O)Nc3cc(Oc4ccc(NC(=O)C5(C(=O)Nc6ccc(F)cc6)CC5)c(F)c4)ccn3)CC2)CC1	659 s
COc1ccc(CNC(=O)C2CCCN(c3nccnc3Sc3ccc(C)cc3)C2)c(OC)c1 (centres undefined)	792 s

Structure (SMILES)	RP-LC retention time
O=C(NC1CCCCC1)C1CCN(S(=O)(=O)c2cc(-c3noc(C4CCC4)n3)cs2)CC1	1070 s
Cc1cccc(N2CCN(C(=O)c3ccc4c(c3)N(C)C(=O)C3CCCCN43)CC2)c1C (centres undefined)	1170 s
Cc1noc(C2CCCCN2C(=O)c2ccoc2)n1 (centres undefined)	670 s
CC1CCN(C(=O)Cn2c(=O)n(-c3ccc(F)cc3)c3ncccc32)CC1	834 s
O=C(Nc1ccccc1)c1cnc(-c2ccc(F)cc2)nc1-c1ccncc1	892 s
CCN(c1ccccc1)S(=O)(=O)c1cc2c3c(c1)CCC(=O)N3CCC2	910 s
Cc1ccc(S(=O)(=O)N2C[C@H](c3nc(-c4cccnc4)no3)[C@@H](C)C2)cc1	939 s
COc1cc(-c2oc3cc(O)cc(O)c3c(=O)c2O[C@@H]2O[C@H](CO)[C@@H](O)[C@H](O)[C@H]2O)ccc1O	684 s
CCN(CC)C(=O)c1c(C)sc2ccn(C)c(=O)c12	639 s
CCCn1cnc2cc(CNC(=O)COc3ccc(Cl)cc3C)ccc21	692 s
O=C(NC1CCN(Cc2ccccc2)CC1)c1cc2c(=O)n(Cc3ccccc3)ccc2s1	688 s
Cc1nn(Cc2nc(-c3ccc(NC(=O)c4cccs4)cc3)oc2C)c(C)c1C	922 s
CCCCn1cc(S(=O)(=O)NCc2cccc(Cl)c2)c2cccnc21	1020 s
O=C(CN1CCc2ccccc2C1C(=O)N1CCCCC1)NCc1ccc(F)cc1Cl (centres undefined)	918 s
Cc1nnc(NC(=O)Cc2csc(Nc3ccc(OC(F)(F)F)cc3)n2)s1	790 s
O=S(=O)(c1ccc(F)cc1)N1CCCC(c2nnnn2-c2ccccc2)C1 (centres undefined)	934 s
COc1ccc(-c2noc(C3CCCN3C(=O)Nc3ccccc3Cl)n2)cc1 (centres undefined)	920 s
COc1ccc(C(O)Cn2ccn3nc(-c4ccc(C)c(C)c4)cc3c2=O)cc1 (centres undefined)	947 s
Cc1cc2nc(C(=O)OC(C)C)c(N3CCN(c4ccccn4)CC3)nc2cc1C	791 s
CCC(c1cccs1)N1C(=O)[C@H]2CN(S(=O)(=O)c3ccc(Cl)cc3)C[C@H]2C1=O (some centres undefined)	1060 s
O=c1c2nnc(SCc3ccccc3)n2ccn1-c1ccc(Br)cc1	812 s

Continued, values first:

RP-LC retention time	Structure (SMILES)
1230 s	CCOc1ccc(S(=O)(=O)N2CC(=O)N(C3CCCC3)C3(CCCCC3)C2)cc1
1120 s	CCN(CC)S(=O)(=O)c1ccc(Cl)c(-c2nnc(-c3ccccc3)o2)c1
652 s	Cc1cc(=O)n(CC(=O)NCc2ccccc2)c(N2CCCCC2)n1
1050 s	CCCCNC(=O)Cn1c(=O)c2cnc(-c3ccc(Cl)cc3)nc2n(CC)c1=O
731 s	CC(C)c1ccc(-n2nc(N3CCN(C(=O)Cn4ccnc4)CC3)ccc2=O)cc1
609 s	COc1ccc(NC(=O)Cn2c(N3CCOCC3)nc(C)cc2=O)cc1
708 s	C=C(C)Cn1c(C2CC(=O)N(c3ccccc3Br)C2)nc2ccccc21 (centres undefined)
672 s	CCOC(=O)c1nc(NC(CC)CN(C)Cc2ccccc2)c2c(C)noc2n1 (centres undefined)
655 s	CN(C)CCn1c2c(c(SCC(=O)Nc3ccc(Br)cc3)nc1=O)CCC2
678 s	Cc1ccc(NC(=O)Cn2c(C)nc3cc4c(cc32)OCCO4)cc1C
716 s	O=C(Cc1ccc(NC(=O)Nc2ccc3c(c2)OCO3)cc1)NCC(F)(F)F
1190 s	Cc1nn(-c2ccc(F)cc2)c2nc(N3CCCC(C(=O)NCc4ccccc4Cl)C3)sc12 (centres undefined)
876 s	O=C(c1csc(S(=O)(=O)N2CCC(C(=O)N3CCCCCC3)CC2)c1)N1CCCCCC1
1020 s	Cc1cccc(-c2nc(C)c(CCNC(=O)C(=O)Nc3ccc([N+](=O)[O-])cc3)s2)c1
740 s	COc1ccc(NC(=O)C2CC(=O)N(c3ccc4c(c3)CCN4C(=O)C3CC3)C2)cc1 (centres undefined)
764 s	CCCCNC(=O)c1cccc2c1CCN2C(=O)C1CC1
744 s	CCOc1cc2c(cc1OCC)C1C(C(=O)N3CCOCC3)c3ccccc3C(=O)N1CC2 (centres undefined)
1170 s	COc1ccc(OCc2nc(-c3ccc(-c4csc(C)n4)cc3)no2)cc1
769 s	CCn1cnc(S(=O)(=O)N2CCCC(C(=O)NCCCc3ccccc3)C2)c1 (centres undefined)
832 s	Cc1[nH]c2ccccc2c1C(=O)C(=O)NCC1COc2ccccc2O1 (centres undefined)
845 s	CCOC(=O)c1nc(Nc2ccc(F)cc2F)c2ccccc2n1
1040 s	Cc1ccc(C)c(NC(=O)C(C)Oc2cc(C(F)(F)F)c3c(C)nn(C)c3n2)c1 (centres undefined)
